Columns and labels:
Assay type in all cases: cell-based, human
[1] = test system: CD8+-enriched PBMC; assay: Direct ex vivo IFN-gamma ELISPOT screening of 98 predicted JCPyV MHC class I peptides in 92 healthy subjects; conditions: for Positive Donors (p < 0.1): number of responding donors among about 10 donors of the predicted HLA allotype, 5*10^5 CD8+-enriched PBMC per well; for Positive Donors (p < 0.1) / tested donors/subjects with significant T cell response to the peptide: peptide 10 μM; for tested donors/subjects with significant T cell response to the peptide: initial screening, allotype-specific subjects; for JCPyV-seronegative subjects reacting against the peptide, out of 22: 22 JCPyV VP1 antibody-seronegative subjects with CTL response; for JCPyV-seronegative subjects reacting against the peptide: 22 JCPyV VP1 antibody-seronegative subjects with CTL response (adj p<0.1); for all subjects tested showing a positive response: independent of HLA-type
Protocol: The 9-mer and 10-mer JCPy virus test peptides were synthesized and HPLC purified to >90% (Thermo Fisher Scientific, GmbH). Peptides were solubilized in DMSO and used in ELISPOT (Mabtech, Sweden) at 10 μM.
(§1) To enrich for the CD8+ T cell population, CD4+ cells were depleted from the PBMC using magnetic cell separation, according to the manufacturer's instructions (StemCell Technologies, Vancouver, Canada).
(§2) PBMC from selected subjects were thawed, washed and seeded onto anti-IFN-γ coated 96-well plates (Mabtech, Sweden) at 2.5*10^5 or 5*10^5 cells per well. Test antigens were diluted in the assay media and added to the cells at the specified doses. Assay medium containing DMSO, and assay medium alone were included as blank conditions for all donors. Cells were incubated for 16-18 hours in a humidified atmosphere at 37° C., 5% CO2. After the incubation period the cells were washed from the plates and an in-house spot development procedure was used to determine IFN-γ production (Lonza, Cambridge, UK). Upon completion of spot development, the plates were scanned, counted and QC analysis conducted using the ImmunoSpot Analyzer (Cellular Technologies Ltd, Cleveland, US).
(§3) The spot count per well (i.e. the number of IFN-γ secreting cells per well) in response to each test antigen was analyzed. Mean values were calculated from the triplicate wells for each test condition. Data analysis was then carried out using the distribution free resampling method (DFR). The DFR method compares each test condition against the blank for each donor and calculates whether the difference is statistically significant (p<0.1).
(§4) The ELISPOT with CD8+-enriched PBMC (5*10^5 cells per well) with the standard ELISPOT assay medium without overnight resting period was used in further experiments.
All viral protein (VP1, VP2, agnoprotein, common T, large T Antigen (LTAg), and small t Antigen (stAg) from both JCPyV and BKPyV) sequences were scanned for the presence of putative HLA class I restricted epitopes. Profiling is performed at the allotype level for 16A and 12B, i.e. 28 HLA class I receptors in total. […] Therefore, during the further selection of epitopes with high expected immunogenicity potential, the following aspects were considered: high HLA-A and -B impact of epitopes, high promiscuity of epitopes, specificity to JCPyV proteins, potential preference for 9-mer peptides, minimal similarity of epitopes to human proteome sequences, location of epitopes in the JCPyV protein sequences Based on the in silico predictions, 98 peptides of the JCPyV proteins were finally selected, representing potential T cell epitopes for the major HLA class I allotypes in the global population. To test immunogenicity of these 98 peptides the ten most common HLA allotypes were selected, 5 HLA-A and 5 HLA-B allotypes (A*0101, A*0201, A*0301, A*1101, A*2402, B*0702, B*0801, B*1501, B*3501 and B*4001) and for each HLA allotype we aimed to have approximately 10 peptides that gave the strongest signal in Epibase. Alongside, the positive controls (CEF, VP1 peptide pool, and VP1 p100) and negative controls (medium blank and DMSO) were tested. The control peptide pools gave responses in the expected range, in 87% and 60% of all subjects tested, showing a positive response to the CEF and JCPyV VP1 peptide pools, respectively. […] The results for the other proteins can be found in supplementary Table 1 and 2.

[2] = test system: CD8+-enriched PBMC; assay: Direct ex vivo IFN-gamma ELISPOT validation of the top 10 peptides and their pool in 20 donors; conditions: for donors responding (T cell response): 20 selected donors covering 8 HLA allotypes
Protocol: The peptide pool of top 10 peptides originating from the initial screening (JCPyV pool) was solubilized in DMSO at 12.5 mg/ml per peptide with a final working concentration of the pool around 10 μM.
as §1, §2, §3, §4
To verify whether the newly identified epitopes were really immunodominant, the 10 newly identified peptides were tested individually or as a peptide pool in the optimized CD8+ T cell enriched direct ex vivo ELISPOT assay. Twenty subjects were selected which cover 8 of the 10 HLA allotypes that were initially selected. […]

[3] = test system: CD8+-enriched PBMC; assay: Direct ex vivo IFN-gamma ELISPOT optimization (cell amount, CD8+ enrichment, medium, overnight rest)
Protocol: as §2
The spot count per well (i.e. the number of IFN-γ secreting cells per well) in response to each test antigen was analyzed. Mean values were calculated from the triplicate wells for each test condition. […]
It has been reported that for some viral peptides, the use of serum-free assay medium and overnight resting of the PBMC before stimulation with peptide can increase peptide specific T cell responses. The influence of assay medium and overnight resting of PBMC was evaluated using only CD8+-enriched PBMC from 5 HLA-A*02 subjects and one non-HLA-A*02 subject.

## FESDSPNRDM (JC polyomavirus) [AP00457]
[1]
  Positive Donors (p < 0.1): 6
[2]
  donors responding (T cell response): 90%

## FLRSSPLVWI (JC polyomavirus) [AP00386]
[1]
  tested donors/subjects with significant T cell response to the peptide: 80%
  Positive Donors (p < 0.1): 8
[2]; 20 donors, peptides tested separately and as pool
  donors with significant T cell response out of 20 tested: 20
[2]
  donors responding (T cell response): 100%

## GEAAATIEV (JC polyomavirus) [AP00460]
[1]
  Positive Donors (p < 0.1): 3

## ILMWEAVTL [AP00410]
[1]
  JCPyV-seronegative subjects reacting against the peptide, out of 22: almost all responded
  JCPyV-seronegative subjects reacting against the peptide: 82%
  Positive Donors (p < 0.1): 7
[1]; all 92 subjects
  subjects showing a positive response out of 92 tested: 44
  all subjects tested showing a positive response: 37%
[1]; all 92 subjects, listed as JCPyV VP1 p100 9-mer
  all subjects tested showing a positive response: 48%
[1]; donors with A*0201 and A*2402 allotypes
  significant responses in A*0201 and A*2402 allotypes: 58%
[3]; FIG. 1 condition C: CD8+-enriched PBMC 5*10^5 per well, 3 HLA-A*02 and one non-HLA-A*02 subject
  subjects with significant IFN-γ response (DFR method): two subjects responded
[3]; FIG. 2 condition D: CD8+-enriched PBMC, serum containing medium, no overnight rest, 5 HLA-A*02 and one non-HLA-A*02 subject
  donors with significant IFN-γ response: three of them also responded

## ILMWEAVTLK [AP00388, JCPyV VP1 p100 10-mer]
[1]; A*2402 donors
  potency at inducing CD8+ T cell responses, 10-mer compared with 9-mer: far less potent than the 9-mer

## LTCGNILMW (JC polyomavirus) [AP00367]
[1]
  Positive Donors (p < 0.1): 4

## MAGVAWIHCL (JC polyomavirus) [AP00423]
[1]
  tested donors/subjects with significant T cell response to the peptide: 90%
  Positive Donors (p < 0.1): 9

## RILIFLLEFL (JC polyomavirus) [AP00402]
[1]
  JCPyV-seronegative subjects reacting against the peptide, out of 22: 8
  JCPyV-seronegative subjects reacting against the peptide: 36%
  Positive Donors (p < 0.1): 6

## SAIAQLGYRF (JC polyomavirus) [AP00441]
[1]
  Positive Donors (p < 0.1): 5

## STISQAFWNL (JC polyomavirus) [AP00400]
[1]
  Positive Donors (p < 0.1): 6

## YPISFLLTDL (JC polyomavirus) [AP00377]
[1]
  Positive Donors (p < 0.1): 5

Reference: US20170059568A1, “Identification of JC viral epitopes by cytotoxic T lymphocytes in healthy individuals and their use in assays” (JANSSEN PHARMACEUTICA NV, priority 2014, published 2017)
